{
  "source": "patent US20200283728A1",
  "about": "“MODIFIED T CELLS AND USES THEREOF” (MUSC FOUNDATION FOR RESEARCH DEVELOPMENT, priority 2017, published 2020)",
  "format_in_all_cases": "cell-based, mouse",
  "key": {"[1]": {"system": "ICOS-activated Th17 cells", "assay": "Memory and regulatory phenotype of ICOS-stimulated Th17 cells expanded with inhibitors (flow cytometry)", "conditions": "day 8 in vitro", "protocol": "(§1) Expansion of Th17 cells with Wnt/β-catenin and PI3K inhibitors in vitro: TRP-1 splenocytes were activated with irradiated (10Gy) C57BL/6 splenocytes pulsed with TRP-1 peptide (1 μM) added at a 5:1 ratio in 24-well plates (1 mL media containing 1.5×10^6 cells/well). TRP-1 splenocytes were co-stimulated with soluble ICOS agonist (Clone 398.4A, BioLegend) and polarized toward Th17 phenotype as describe above. For in vitro expansion from day 0 of culture 10 μM Ly294002 (Cayman Chemical) or 10 μM CAL-101 (Selleckchem) and/or 60 μM indomethacin (Sigma-Aldrich) was added. Also dimethylosulfoxide 0.01% (Sigma-Aldrich) was added as a control. Th17 cultures were also supplemented with hrIL-2 (100 IU/mL) and rmIL-23 ([…]; R&D). Medium, including cytokines and inhibitors was refreshed every 2-3 days.\nSurface staining of Th17 cells was performed with anti-CD4-APCCy7, anti-Vβ14-FITC (BD Biosciences) anti-CD62L-APC, anti-CD44-PerCPCy5.5, anti-CCR6-PE, anti-CD69-PECy7, anti-CCR7-PE, anti-CD27-PE, anti-CD28-PerCPCy5.5, anti-ICOS-PE and anti-CD25-PECy7/FITC (BioLegend) and viability stain (Invitrogen) on day 8. For all intracellular staining of cytokines (anti-IL-17 PerCPCy5.5, anti-IFN-γ-v450, anti-IL-2-FITC, anti-IL-21-APC, anti-IL-22-PE, anti-TNF-α-FITC; BioLegend) and transcription factors (anti-RORγt-APC, anti-cMaf-PerCPCy5.5, anti-STAT-3-PE, anti-FoxP3-FITC/PE, anti-T-bet-v450; eBiosciences), cells were stimulated for 4-5 h with 50 ng/mL PMA and 750 ng/mL ionomycin (Sigma-Aldrich). Additional antibodies used include: CD127-PECy7 clone A019D5, CD25-APCCy7 clone BC96, CD4-APCCy7 OKT4, CD45RO-APC clone UCHL1, CD62L-FITC clone DREG-56, CD8-PerCPCy5.5 clone SKI, TIM3-PE clone F38-2E2 (biolegend); CCR7-PECy7 clone CCR7, CD8-V450 clone RPA-T8, PD1-FITC clone M1H4, (BD Biosciences). […] Data were analyzed with FlowJo software (TreeStar). […]"}, "[2]": {"system": "ICOS activated Th17 cells", "assay": "Cytokine production of inhibitor-primed Th17 cells after secondary re-stimulation in vitro (ELISA)", "conditions": "vs untreated or CAL-101-treated Th17 cells", "excerpt": "FIG. 11: Re-stimulation of ICOS activated Th17 cells in vitro restores their cytokine production after initial inhibition of PI3K/p110δ and Wnt/β-catenin signaling pathways. ELISA analysis of cytokine production 72 hrs after secondary re-stimulation in vitro using splenocytes pulsed with trp-1 peptide (5:1 ratio), PMA/Ionomycin or B16F10 cancer cells of ICOS stimulated Th17 cells expanded with inhibitors as indicated. Data represent mean±SEM of at least three independent experiments.\nCytokine levels were measured using the mouse IL-17A, INF-γ, IL-2, IL-9, IL-10, IL-21, IL-22, CCL-20, GM-CSF ELISA kits (R&D) following the manufacturer's protocol."}, "[3]": {"system": "ICOS-activated Th17 cells", "assay": "Cytokine secretion of Th17 cells three days after priming (ELISA)", "conditions": "day 3 after priming", "protocol": "as §1, with “TRP-1” left out, “days. Cytokine levels were measured using the mouse IL-17A, INF-γ, IL-2, IL-9, IL-10, IL-21, IL-22, CCL-20, GM-CSF ELISA kits (R&D) following the manufacturer's protocol.” for “days.”"}},
  "data": [
    {"smiles": "COc1ccc2c(c1)c(CC(=O)O)c(C)n2C(=O)c1ccc(Cl)cc1", "note": "[Indo, indomethacin]", "values": [
      {"measurement": "central memory phenotype (CD44^highCD62L^high)", "setting": "[1]", "result": "did not impact their memory phenotype"},
      {"measurement": "IL-2 secretion after peptide re-stimulation", "setting": "[2]", "result": "significantly more"},
      {"measurement": "CCL-20 secretion", "setting": "[3]", "result": "decreased"},
      {"measurement": "GM-CSF secretion", "setting": "[3]", "result": "no difference"},
      {"measurement": "IFN-γ secretion", "setting": "[3]", "result": "decreased"},
      {"measurement": "IL-2 secretion", "setting": "[3]", "result": "no difference"},
      {"measurement": "IL-9 secretion", "setting": "[3]", "result": "decreased"},
      {"measurement": "IL-10 secretion", "setting": "[3]", "result": "no difference"},
      {"measurement": "IL-17A secretion", "setting": "[3]", "result": "decreased"},
      {"measurement": "IL-21 secretion", "setting": "[3]", "result": "no difference"}
    ]}
  ]
}
